# Reference: patent US11661423B2, “Heterocyclic compounds as RET kinase inhibitors” (Cancer Research Technology Limited, priority 2016, dated 2023)
# Target: RET (Homo sapiens (Human), UniProt P07949)
# Assay: RET enzyme assay (CisBio HTRF kinEASE)
# Type: biochemical
# Chain of RET (P07949 29-1114): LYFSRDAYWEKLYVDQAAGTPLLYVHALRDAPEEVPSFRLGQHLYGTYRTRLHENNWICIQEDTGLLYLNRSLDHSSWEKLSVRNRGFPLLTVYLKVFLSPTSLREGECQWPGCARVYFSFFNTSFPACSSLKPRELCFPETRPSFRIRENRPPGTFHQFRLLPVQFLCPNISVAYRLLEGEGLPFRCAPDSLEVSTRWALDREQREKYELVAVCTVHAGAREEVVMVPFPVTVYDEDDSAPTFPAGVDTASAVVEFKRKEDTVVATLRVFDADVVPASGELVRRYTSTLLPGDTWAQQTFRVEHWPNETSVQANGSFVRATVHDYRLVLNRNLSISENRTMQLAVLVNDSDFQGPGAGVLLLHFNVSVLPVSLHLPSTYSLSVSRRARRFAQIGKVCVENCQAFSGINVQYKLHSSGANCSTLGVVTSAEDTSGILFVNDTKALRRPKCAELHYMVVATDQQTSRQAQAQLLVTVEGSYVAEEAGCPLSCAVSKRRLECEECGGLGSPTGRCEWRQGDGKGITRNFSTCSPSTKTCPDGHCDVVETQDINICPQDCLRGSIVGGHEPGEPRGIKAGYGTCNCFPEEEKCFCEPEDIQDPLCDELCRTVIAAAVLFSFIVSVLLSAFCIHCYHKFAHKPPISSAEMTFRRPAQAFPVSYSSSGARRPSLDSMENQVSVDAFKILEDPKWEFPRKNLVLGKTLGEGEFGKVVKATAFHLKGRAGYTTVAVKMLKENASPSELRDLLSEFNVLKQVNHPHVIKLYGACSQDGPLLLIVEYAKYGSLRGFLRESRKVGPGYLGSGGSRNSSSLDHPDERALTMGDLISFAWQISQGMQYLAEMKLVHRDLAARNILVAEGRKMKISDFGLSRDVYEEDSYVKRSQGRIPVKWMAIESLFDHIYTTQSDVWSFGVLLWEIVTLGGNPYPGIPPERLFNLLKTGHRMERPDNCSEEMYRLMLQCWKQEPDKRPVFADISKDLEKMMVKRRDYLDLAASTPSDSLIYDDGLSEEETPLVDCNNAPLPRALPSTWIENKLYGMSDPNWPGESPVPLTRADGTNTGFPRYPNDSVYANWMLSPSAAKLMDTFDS
row,SMILES,activity in the assays described in the Examples section
1,"CC(C)CCn1nc(-c2[nH]c3ccccc3c2Cl)c2c(N)ncnc21 [3-(3-Chloro-1H-indol-2-yl)-1-isopentyl-1H-pyrazolo[3,4-d]pyrimidin-4-amine]",did not exhibit the desired activity
2,"Nc1ncnc2c1c(-c1[nH]c3ncccc3c1Cl)nn2CC(=O)O [2-(4-amino-3-(3-chloro-1H-pyrrolo[2,3-b]pyridin-2-yl)-1H-pyrazolo[3,4-d]pyrimidin-1-yl)acetic acid]",did not exhibit the desired activity
3,"CC(C)(C)n1nc(-c2cc3ncccc3[nH]2)c2c(N)ncnc21 [1-tert-butyl-3-(1H-pyrrolo[3,2-b]pyridin-2-yl)pyrazolo[3,4-d]pyrimidin-4-amine]",did not exhibit the desired activity
4,"Cn1nc(-c2[nH]c3ncccc3c2Cl)c2c(N)ncnc21 [Example 65, 3-(3-Chloro-1H-pyrrolo[2,3-b]pyridin-2-yl)-1-methyl-pyrazolo[3,4-d]pyrimidin-4-amine]",did not exhibit the desired activity
5,"Nc1ncnc2c1c(-c1[nH]c3ccccc3c1Cl)nn2CC1CCNC1 (centres unmarked) [3-(3-chloro-1H-indol-2-yl)-1-(pyrrolidin-3-ylmethyl)-1H-pyrazolo[3,4-d]pyrimidin-4-amine]",did not exhibit the desired activity
